Patent publication US20240208983A1, “1,2,4-TRIAZOLO[4,3-A]PYRIDINE DERIVATIVES AS NEGATIVE ALLOSTERIC MODULATORS OF METABOTROPIC GLUTAMATE RECEPTOR 2” (Vanderbilt University, priority 2021, published 2024)
Where two headings read alike, the source gives them in different places.

How the values were obtained:
group II mGlu receptors = details: cited from earlier work
human mGlu2 = molecular target: T1, human mGlu2 (Homo sapiens, UniProt Q14416); experiment: mGlu2 GIRK cell-based thallium flux assay; details: HEK-293 co-expressing human mGlu2 and GIRK; EC80 glutamate
T1 construct: expressed in transfected cells; host or cells: HEK-293
T1 sequence (Q14416 19-872): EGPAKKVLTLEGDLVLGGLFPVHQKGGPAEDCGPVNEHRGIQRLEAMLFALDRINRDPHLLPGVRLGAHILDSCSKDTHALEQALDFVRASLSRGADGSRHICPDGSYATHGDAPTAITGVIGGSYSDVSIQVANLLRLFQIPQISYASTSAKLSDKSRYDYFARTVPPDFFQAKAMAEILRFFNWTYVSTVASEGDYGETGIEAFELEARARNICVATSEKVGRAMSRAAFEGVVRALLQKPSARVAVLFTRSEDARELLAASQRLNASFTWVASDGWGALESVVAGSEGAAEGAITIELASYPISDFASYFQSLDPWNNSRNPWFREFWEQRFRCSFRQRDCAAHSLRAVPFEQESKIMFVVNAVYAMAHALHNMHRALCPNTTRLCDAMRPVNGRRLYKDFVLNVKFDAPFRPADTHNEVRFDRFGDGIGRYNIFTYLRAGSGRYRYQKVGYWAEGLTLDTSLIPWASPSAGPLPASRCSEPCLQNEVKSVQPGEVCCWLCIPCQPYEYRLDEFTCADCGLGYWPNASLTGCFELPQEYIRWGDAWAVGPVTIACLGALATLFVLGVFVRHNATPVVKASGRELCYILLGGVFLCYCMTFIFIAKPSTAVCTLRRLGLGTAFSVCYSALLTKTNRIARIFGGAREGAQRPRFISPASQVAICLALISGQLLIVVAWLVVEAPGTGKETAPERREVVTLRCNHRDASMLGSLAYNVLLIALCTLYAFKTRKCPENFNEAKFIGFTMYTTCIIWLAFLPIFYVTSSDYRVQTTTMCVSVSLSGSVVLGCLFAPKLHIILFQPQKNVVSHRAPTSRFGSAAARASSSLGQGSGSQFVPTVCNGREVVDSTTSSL
Procedure: (§1) Human embryonic kidney (HEK-293) cell lines stably co-expressing human mGlu2 and G protein-coupled inwardly rectifying potassium (GIRK) channels, or human mGlu3 and GIRK, were used for in vitro evaluation of compound activity through thallium flux assays.
(§2) The day before the assay, cells from cell lines co-expressing human mGlu2 or mGlu3 and GIRK, as described above, were plated in black-walled, clear-bottomed, amine-coated 384-well plates in 20 μL of assay medium (DMEM containing 10% FBS, 1 M HEPES, 100 mM sodium pyruvate) at a density of 15,000 cells/well and stored at 37° C. in the presence of 5% CO2. On the day of the assay, medium was removed and replaced with assay buffer (Hanks balanced salt solution, 20 mM HEPES, 4.16 mM sodium bicarbonate, pH 7.2) containing 0.328 μM FluoZin-2 AM dye. The dye was initially made up as a 2.85 mM stock in DMSO and diluted 1:1 with 10% pluronic acid before adding to the buffer. Cells were then incubated for one hour at room temperature. After dye-loading, excess extracellular dye was removed by exchanging the dye solution with assay buffer resulting in 20 μL of buffer in each well. After a ten-minute rest period, cell plates were loaded into a Hamamatsu μCell kinetic imaging plate reader to monitor fluorescence using 470 nm excitation and 540 nm emission settings.
(§3) After collection of baseline fluorescence, 20 μL of compound solution prepared as a concentration response series in assay buffer was added. The concentration series was created from a 10 mM DMSO compound stock by performing a 1:3 serial dilution in DMSO followed by a 1:167 dilution of each DMSO solution in buffer. […] Multiple reference wells containing no compound received either no glutamate (for a baseline reference), EC80 glutamate, or ECmax glutamate (for normalization to maximum response). Signal was monitored an additional 2.5 minutes after the glutamate addition. Fluorescence was measured throughout the experiment at a frequency of 1 measurement per every 2 seconds before the glutamate addition and a frequency of 1 measurement per every 1 second after the glutamate addition. Each compound concentration series occurred one time in each plate, and replicates from two or three plates were used in each experimental run. Thallium solutions were handled and disposed of according to guidelines from the Vanderbilt University Chemical Safety department.
(§4) Data were normalized using a static ratio function (F/F0) by dividing every fluorescent measurement by the initial fluorescent value for the corresponding well. The increase in signal resulting from the glutamate/thallium addition of the second add was measured by determining the slope from 3 seconds to 13 seconds after the addition. The average of all baseline slopes (no compound, no glutamate) was determined and this value was subtracted from all other slope values. The average of all ECmax slopes was determined and this value was used to normalize the baseline-corrected slopes to a percent max value (% Emax). The % Emax values for each compound series were plotted versus the log of the concentration and fit to a 4-parameter logistical equation with no fixed parameters.
(§5) Potency is reported as the IC50 resulting from the curve fit.

human mGlu3 = molecular target: T2, human mGlu3 (Homo sapiens, UniProt Q14832); experiment: mGlu3 GIRK cell-based thallium flux assay; details: HEK-293 co-expressing human mGlu3 and GIRK; EC80 glutamate
T2 construct: expressed in transfected cells; host or cells: HEK-293
T2 sequence (Q14832 23-879): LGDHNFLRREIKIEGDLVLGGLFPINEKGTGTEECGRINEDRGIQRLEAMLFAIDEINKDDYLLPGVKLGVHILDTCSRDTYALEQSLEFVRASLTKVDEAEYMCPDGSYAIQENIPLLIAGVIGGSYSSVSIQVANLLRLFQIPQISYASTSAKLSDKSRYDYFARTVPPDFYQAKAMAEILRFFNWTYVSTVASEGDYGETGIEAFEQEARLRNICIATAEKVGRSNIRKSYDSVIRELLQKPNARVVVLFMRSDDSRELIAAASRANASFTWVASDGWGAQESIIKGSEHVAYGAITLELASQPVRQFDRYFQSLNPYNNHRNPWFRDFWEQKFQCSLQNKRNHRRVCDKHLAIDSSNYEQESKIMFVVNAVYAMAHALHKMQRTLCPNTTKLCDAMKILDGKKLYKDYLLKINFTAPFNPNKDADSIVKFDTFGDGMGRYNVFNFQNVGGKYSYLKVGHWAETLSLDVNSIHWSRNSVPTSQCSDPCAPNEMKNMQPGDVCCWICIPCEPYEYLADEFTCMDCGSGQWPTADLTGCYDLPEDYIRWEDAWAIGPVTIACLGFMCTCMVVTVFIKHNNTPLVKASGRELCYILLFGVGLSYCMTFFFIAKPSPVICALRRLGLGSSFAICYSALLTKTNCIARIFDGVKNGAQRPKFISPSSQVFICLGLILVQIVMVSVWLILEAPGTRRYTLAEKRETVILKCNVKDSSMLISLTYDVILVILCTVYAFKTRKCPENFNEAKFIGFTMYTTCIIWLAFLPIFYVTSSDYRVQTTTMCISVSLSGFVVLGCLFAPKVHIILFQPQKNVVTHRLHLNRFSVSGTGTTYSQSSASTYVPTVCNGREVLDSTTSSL
Procedure: as §1, §2, §3, §4, §5

normal animals [1] = details: cited from earlier work
normal animals [2] = details: cited from earlier work; remark: listed apart in the source
[3] = system: central mGlu2 and mGlu3 receptors; details: in vivo; cited from earlier work
C57Bl6/J mice = details: cited from earlier work
Helpless (H) mice = details: cited from earlier work; for activity in the tail suspension test: Helpless (H) mice
mice = details: treated mice; cited from earlier work
[4] = system: Aβ-induced neurodegeneration; details: cited from earlier work
[5] = treatment for 7 days; cited from earlier work
[6] = system: olfactory bulbectomized rats; details: repeated administration for 14 days; cited from earlier work
[7] = system: social isolation-reared mice; details: cited from earlier work
[8] = in vivo; cited from earlier work

Compound: CCCCCCCOC(=O)[C@@]1(F)[C@@H]2C[C@@H](OCc3ccc(Cl)c(Cl)c3)[C@@](N)(C(=O)O)[C@@H]21 [BCI-838]
- duration of inhibition of group II mGlu receptors by brain concentration of active metabolite BCI-632 (group II mGlu receptors; once-daily oral dosing): 22 h
- Dutch APP transgene-associated learning and memory impairment (group II mGlu receptors; three months of treatment): reversed
- anxiolytic effects (group II mGlu receptors; three months of treatment): provided anxiolytic effects
- levels of monomeric and oAβ peptides in the hippocampus and cortex (group II mGlu receptors; three months of treatment, two AD mouse models): decreased
- hippocampal progenitor cell proliferation (group II mGlu receptors; wild-type and Alzheimer's diseased mice, 3 months): stimulated

Compound: Cn1ccc(COc2cc3n[nH]c(=O)n3cc2-c2ccc(F)cc2)n1 [Compound 1, 6-(4-fluorophenyl)-7-((1-methyl-1H-pyrazol-3-yl)methoxy)-[1,2,4]triazolo[4,3-a]pyridin-3(2H)-one]
- IC50 (human mGlu2): 771 nM
- Human mGlu3 GIRK IC50 (human mGlu3): Inactive

Compound: Cc1nc(COc2cc3n[nH]c(=O)n3cc2-c2ccc(F)cc2)cs1 [Compound 3, 6-(4-fluorophenyl)-7-((2-methylthiazol-4-yl)methoxy)-[1,2,4]triazolo[4,3-a]pyridin-3(2H)-one]
- IC50 (human mGlu2): 104 nM
- Human mGlu3 GIRK IC50 (human mGlu3): Inactive

Compound: Cc1csc(COc2cc3n[nH]c(=O)n3cc2-c2ccc(F)cc2)n1 [Compound 6, 6-(4-fluorophenyl)-7-((4-methylthiazol-2-yl)methoxy)-[1,2,4]triazolo[4,3-a]pyridin-3(2H)-one]
- IC50 (human mGlu2): 169 nM
- Human mGlu3 GIRK IC50 (human mGlu3): Inactive

Compound: COc1ccc(-c2cn3c(=O)[nH]nc3cc2OCc2ccn(C)n2)c(F)c1 [Compound 7, 6-(2-fluoro-4-methoxyphenyl)-7-((1-methyl-1H-pyrazol-3-yl)methoxy)-[1,2,4]triazolo[4,3-a]pyridin-3(2H)-one]
- IC50 (human mGlu2): 89 nM
- Human mGlu3 GIRK IC50 (human mGlu3): Inactive

Compound: COc1ccc(-c2cn3c(=O)[nH]nc3cc2OCc2csc(C)n2)c(F)c1 [Compound 8, 6-(2-fluoro-4-methoxyphenyl)-7-((2-methylthiazol-4-yl)methoxy)-[1,2,4]triazolo[4,3-a]pyridin-3(2H)-one]
- IC50 (human mGlu2): 54.2 nM
- Human mGlu3 GIRK IC50 (human mGlu3): Inactive

Compound: COc1ccc(-c2cn3c(=O)[nH]nc3cc2OCc2nccn2C)c(F)c1 [Compound 9, 6-(2-fluoro-4-methoxyphenyl)-7-((1-methyl-1H-imidazol-2-yl)methoxy)-[1,2,4]triazolo[4,3-a]pyridin-3(2H)-one]
- IC50 (human mGlu2): 216 nM
- Human mGlu3 GIRK IC50 (human mGlu3): Inactive

Compound: COc1ccc(-c2cn3c(=O)[nH]nc3cc2OCc2cc(C)n(C)n2)c(F)c1 [Compound 10, 7-((1,5-dimethyl-1H-pyrazol-3-yl)methoxy)-6-(2-fluoro-4-methoxyphenyl)-[1,2,4]triazolo[4,3-a]pyridin-3(2H)-one]
- IC50 (human mGlu2): 119 nM
- Human mGlu3 GIRK IC50 (human mGlu3): Inactive

Compound: COc1ccc(-c2cn3c(=O)[nH]nc3cc2OCc2ccn(C)n2)cc1 [Compound 11, 6-(4-methoxyphenyl)-7-((1-methyl-1H-pyrazol-3-yl)methoxy)-[1,2,4]triazolo[4,3-a]pyridin-3(2H)-one]
- IC50 (human mGlu2): 85.8 nM
- Human mGlu3 GIRK IC50 (human mGlu3): Inactive

Compound: N[C@](CC1c2ccccc2Oc2ccccc21)(C(=O)O)[C@H]1C[C@@H]1C(=O)O [LY341495]
- Antidepressant-like effects in rat FST (normal animals [1]): Antidepressant-like effects
- Antidepressant-like effects in mouse TST (normal animals [2]): Antidepressant-like effects
- hypolocomotor effect of mGlu2/3 agonist (LY379268) [3]: achieved the same result
- immobility time in the FST (C57Bl6/J mice): dose-dependently reduced
- activity in the tail suspension test (Helpless (H) mice): active
- antidepressant effect in helpless mice (Helpless (H) mice; acute administration): potent antidepressant effect
- marble-burying behavior (mice): significantly reduce marble-burying behavior
- amplification of Aβ-induced neurodegeneration by LY566332 [4]: prevented

Compound: CCS(=O)(=O)N(Cc1cccnc1)c1cccc(-c2ccc(C#N)cc2)c1 [LY566332]
- Aβ-induced neurodegeneration [4]: amplified

Compound: N[C@]1(C(=O)O)[C@H]2[C@@H](C[C@H]1OCc1ccc(Cl)c(Cl)c1)[C@]2(F)C(=O)O [MGS0039]
- Antidepressant-like effects in rat FST (normal animals [1]): Antidepressant-like effects
- Antidepressant-like effects in mouse TST (normal animals [2]): Antidepressant-like effects
- number of escape failures [5]: significantly reduced
- hyperactivity in the open field test [6]: attenuated the hyperactivity
- learning deficit in the passive avoidance test [6]: attenuated the learning deficit
- immobility in the FST [7]: reversed the increased immobility
- marble-burying behavior (mice): reduced marble-burying behavior in a significant and dose dependent manner
- spontaneous locomotor activity (mice): no significant change
- freezing behavior [8]: significantly decreased

Compound: Cc1cc(-c2cccc(C3=Nc4cc(C)c(C(F)(F)F)cc4NC(=O)C3)c2)cc(C)n1 [RO4491533]
- hypolocomotor effect of mGlu2/3 agonist (LY379268) [3]: reversed the hypolocomotor effect
- immobility time in the FST (C57Bl6/J mice): dose-dependently reduced
- activity in the tail suspension test (Helpless (H) mice): active

Compound: CN1C(=O)CN=C(c2ccccc2)c2cc(Cl)ccc21 [diazepam]
- freezing behavior [8]: significantly decreased

Compound: CNCCC(Oc1ccc(C(F)(F)F)cc1)c1ccccc1 (centres unmarked) [fluoxetine]
- antidepressant effect in helpless mice (Helpless (H) mice; chronic (21 days) treatment): full antidepressant effect
